Reference: patent US6709851B1, “Stabilization of helicobacter urease” (OraVax-Merieux Co., priority 1997, dated 2004)
“Also recorded” adds a separate entry of the source. Read-outs that look alike come from different tables or passages of the source.

Legend:
[1] = molecular target: T1, recombinant H. pylori apourease (Helicobacter pylori, UniProt P69996); format: biochemical; conditions: for activation of modified urease after removal of excess modifying agent: excess agent removed by diafiltration; for activation with Ni++ and bicarbonate of urease modified by the compound: urease modified before activation
T1 sequence (P69996 whole entry, looked up): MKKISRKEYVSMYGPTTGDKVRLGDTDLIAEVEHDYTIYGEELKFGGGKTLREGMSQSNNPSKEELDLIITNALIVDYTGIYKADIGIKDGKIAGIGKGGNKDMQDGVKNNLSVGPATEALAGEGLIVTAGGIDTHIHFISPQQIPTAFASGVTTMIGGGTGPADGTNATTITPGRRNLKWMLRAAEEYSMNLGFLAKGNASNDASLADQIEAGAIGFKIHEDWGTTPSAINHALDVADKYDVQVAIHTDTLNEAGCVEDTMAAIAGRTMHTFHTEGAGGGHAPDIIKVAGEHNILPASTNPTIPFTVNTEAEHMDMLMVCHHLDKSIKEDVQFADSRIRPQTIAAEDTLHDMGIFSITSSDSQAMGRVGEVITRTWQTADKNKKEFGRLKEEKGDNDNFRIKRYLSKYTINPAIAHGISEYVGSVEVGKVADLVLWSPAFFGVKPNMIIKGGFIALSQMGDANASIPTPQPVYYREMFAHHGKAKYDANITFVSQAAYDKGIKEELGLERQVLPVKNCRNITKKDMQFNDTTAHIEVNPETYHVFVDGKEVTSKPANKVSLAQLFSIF

[2] = Molecular stability and aggregation of urease by analytical size exclusion HPLC; conditions: for effect of blocking free sulfhydryl groups on molecular association of urease: treated urease in solution or dialyzed in PBS; for effect of additive on molecular association of urease: dialysis against PBS and storage at 4° C.
[3] = molecular target: in vitro activated urease (Helicobacter pylori, UniProt P69996); format: biochemical
in vitro activated urease, sequence (P69996 whole entry, looked up): as above

[4] = molecular target: T1, recombinant H. pylori apourease; format: biochemical; conditions: for effect of imidazole on activation by Ni++ and bicarbonate: imidazole 2.5-25 mM, 200 mM bicarbonate, 200 μM Ni++
[5] = compound added along with activation buffer

## [Mn+2] [Mn^++]
[1]
  activation of recombinant urease by metal ion with bicarbonate: resulted in activation of urease
  effect of other metal ion on activation of recombinant urease by Ni++: enhanced the activation; also recorded: synergistic effect

## O=[N+]([O-])c1ccc(F)c([N+](=O)[O-])c1 [DNFB, dinitrofluorobenzene]
[2]; dialyzed against phosphate buffer overnight
  effect of DNFB treatment on molecular stability: stabilizes the hexameric form of urease
[1]
  activation with compound included in the activation mixture: activation is blocked
  in vitro activation after DNFB treatment for 5, 15, 30, and 60 minutes: blocks in vitro activation
  pH dependence of DNFB blocking of in vitro activation: more effective at alkaline pH (pH>7.5) than at neutral or acidic pH; also recorded: pH-dependent
[1]; pH 8
  in vitro activation of apourease modified with DNFB: blocked in vitro activation; also recorded: not activated
[3]
  effect of DNFB on pre-activated urease activity: inactivates pre-activated urease in a pH-dependent manner

## [Ni+2] [Ni^++]
[1]
  activation of recombinant urease by metal ion with bicarbonate: resulted in activation of urease

## NC(=O)CI [iodoacetamide]
[2]
  effect of blocking free sulfhydryl groups on molecular association of urease: stabilizing effect on urease in solution; also recorded: reduce the molecular associations; also recorded: stabilized the hexameric form of urease and prevented molecular association
[1]; [5]
  activation with compound included in the activation mixture: blocking of activation
[1]
  activation of modified urease after removal of excess modifying agent: not activated
  activation with Ni++ and bicarbonate of urease modified by the compound: not activated; also recorded: inhibits activation

## [Fe+2] [Fe^++]
[1]
  effect of other metal ion on activation of recombinant urease by Ni++: inhibited activation; also recorded: antagonistic effects
[4]
  effect of other metal ion on Ni++ activation by native PAGE and silver staining: inhibitory effect

## O=C(O)c1cc(SSc2ccc([N+](=O)[O-])c(C(=O)O)c2)ccc1[N+](=O)[O-] [DTNB, 5-5′-dithio-bis-2-nitrobenzoic acid]
[2]
  effect of blocking free sulfhydryl groups on molecular association of urease: stabilizing effect on urease in solution; also recorded: reduce the molecular associations; also recorded: stabilized the hexamer form of urease and prevented molecular association
[1]; [5]
  activation with compound included in the activation mixture: blocking of activation
[1]
  activation of modified urease after removal of excess modifying agent: not activated
  activation with Ni++ and bicarbonate of urease modified by the compound: not activated

## [Co+2] [Co^++]
[1]
  activation of recombinant urease by metal ion with bicarbonate: do not cause urease activation
  effect of other metal ion on activation of recombinant urease by Ni++: inhibit activation

## [Mg+2] [Mg^++]
[1]
  effect of other metal ion on activation of recombinant urease by Ni++: no detectable effect

## O=C(O)CN(CCN(CC(=O)O)CC(=O)O)CC(=O)O [EDTA]
[2]
  effect of additive on molecular association of urease: did not have any significant effect

## [Cu+2] [Cu^++]
[1]
  effect of other metal ion on activation of recombinant urease by Ni++: inhibited activation; also recorded: antagonistic effects
[4]
  effect of other metal ion on Ni++ activation by native PAGE and silver staining: inhibitory effect

## c1c[nH]cn1 [imidazole]
[4]
  effect of imidazole on activation by Ni++ and bicarbonate: inhibits urease activation
[4]; listed as Imidazole
  effect of imidazole on activation by Ni++ and bicarbonate: inhibit the activation of recombinant urease in a concentration-dependent manner

## OC[C@H]1O[C@@](CO)(O[C@H]2O[C@H](CO)[C@@H](O)[C@H](O)[C@H]2O)[C@@H](O)[C@@H]1O [Sucrose]
[2]
  effect of additive on molecular association of urease: significantly reduced the extent of aggregation

## OCCS [β-mercaptoethanol]
[2]
  effect of additive on molecular association of urease: stabilized urease in the hexameric form; also recorded: prevented the molecular associations

## CCN1C(=O)C=CC1=O [NEM, N-ethyl maleimide]
[1]; 9 mM NEM, room temperature, 60 minutes, 20 mM Hepes pH 7.5
  activation by bicarbonate and nickel of NEM-modified apourease: not activated
